# Data reported in patent US12622909B2, “Allosteric EGFR inhibitors and methods of use thereof” (Dana-Farber Cancer Institute, Inc., priority 2019, dated 2026).
# Structures can show the parent of a compound that is named as a salt. Where two headings read alike, the source gives them in different places.
# How the values were obtained:
# EGFR L858R/T790M = EGFR L858R/T790M (Homo sapiens, UniProt P00533, L858R/T790M); experiment: HTRF-based EGFR biochemical assay (L858R/T790M); settings: 100 μM ATP, enzyme 0.02 nM
# EGFR L858R/T790M, sequence (P00533 25-1210 T790M/L858R): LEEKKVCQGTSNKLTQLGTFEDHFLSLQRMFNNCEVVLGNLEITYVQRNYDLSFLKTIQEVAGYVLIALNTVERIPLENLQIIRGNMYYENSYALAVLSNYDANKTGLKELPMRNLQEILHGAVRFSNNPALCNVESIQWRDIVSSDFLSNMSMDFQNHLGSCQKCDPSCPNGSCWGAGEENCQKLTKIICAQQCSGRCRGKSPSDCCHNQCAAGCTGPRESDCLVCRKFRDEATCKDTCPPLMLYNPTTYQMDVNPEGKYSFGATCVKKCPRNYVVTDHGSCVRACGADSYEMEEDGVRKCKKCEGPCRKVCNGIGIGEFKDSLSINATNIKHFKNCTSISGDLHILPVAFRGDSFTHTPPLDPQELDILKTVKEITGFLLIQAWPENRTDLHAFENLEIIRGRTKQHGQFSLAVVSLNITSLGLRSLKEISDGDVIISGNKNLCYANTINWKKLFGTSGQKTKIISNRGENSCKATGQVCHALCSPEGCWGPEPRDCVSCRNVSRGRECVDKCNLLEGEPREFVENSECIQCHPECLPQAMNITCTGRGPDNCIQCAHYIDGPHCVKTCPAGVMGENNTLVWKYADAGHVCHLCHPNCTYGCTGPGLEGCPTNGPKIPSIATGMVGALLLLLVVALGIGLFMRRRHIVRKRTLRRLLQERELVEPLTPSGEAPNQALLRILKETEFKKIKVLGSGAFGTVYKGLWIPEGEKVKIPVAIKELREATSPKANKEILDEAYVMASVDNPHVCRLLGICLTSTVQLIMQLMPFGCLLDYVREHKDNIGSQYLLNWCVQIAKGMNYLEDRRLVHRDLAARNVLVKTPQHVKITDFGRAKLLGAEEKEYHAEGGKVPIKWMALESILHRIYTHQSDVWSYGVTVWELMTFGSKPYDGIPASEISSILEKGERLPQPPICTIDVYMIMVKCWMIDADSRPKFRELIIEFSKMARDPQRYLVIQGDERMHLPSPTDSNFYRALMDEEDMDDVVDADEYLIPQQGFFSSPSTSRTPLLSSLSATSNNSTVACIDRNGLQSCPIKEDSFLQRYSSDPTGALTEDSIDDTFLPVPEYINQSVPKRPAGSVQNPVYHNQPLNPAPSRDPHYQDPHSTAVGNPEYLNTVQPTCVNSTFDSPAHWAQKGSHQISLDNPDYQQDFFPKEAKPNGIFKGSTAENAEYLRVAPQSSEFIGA
# Procedure: (§1) EGFR biochemical activity measurements were carried out using the homogeneous time-resolved fluorescence (HTRF) assay (Cisbio). Inhibitors and DMSO normalizations were first dispensed to empty black low-volume 384-well plates (Corning) with D300 digital liquid dispenser (HP). All reactions were carried out at room temperature and solutions were added to plates with a Multidrop Combi Reagent Dispenser (ThermoFisher). The reaction mixture (10 μL final volume) contained 1 μM tyrosine kinase peptide-biotin substrate and mutant EGFR in a reaction buffer (50 mM HEPES pH 7.0, 5 mM MgCl2, 1 mM MnCl2, 0.01% BSA, 2 mM TCEP, 0.1 mM NaVO4). […] Enzyme reaction solution (2× concentrations, 5 μL) was added to 384-well plates containing compounds and incubated for 30 mins. Enzyme reactions were initiated with the addition of 5 μL of ATP to a final concentration of 100 μM and reacted for 20 mins.
# EGFR L858R = EGFR L858R (Homo sapiens, UniProt P00533, L858R); experiment: HTRF-based EGFR biochemical assay (L858R); settings: 100 μM ATP, enzyme 0.1 nM
# EGFR L858R, sequence (P00533 25-1210 L858R): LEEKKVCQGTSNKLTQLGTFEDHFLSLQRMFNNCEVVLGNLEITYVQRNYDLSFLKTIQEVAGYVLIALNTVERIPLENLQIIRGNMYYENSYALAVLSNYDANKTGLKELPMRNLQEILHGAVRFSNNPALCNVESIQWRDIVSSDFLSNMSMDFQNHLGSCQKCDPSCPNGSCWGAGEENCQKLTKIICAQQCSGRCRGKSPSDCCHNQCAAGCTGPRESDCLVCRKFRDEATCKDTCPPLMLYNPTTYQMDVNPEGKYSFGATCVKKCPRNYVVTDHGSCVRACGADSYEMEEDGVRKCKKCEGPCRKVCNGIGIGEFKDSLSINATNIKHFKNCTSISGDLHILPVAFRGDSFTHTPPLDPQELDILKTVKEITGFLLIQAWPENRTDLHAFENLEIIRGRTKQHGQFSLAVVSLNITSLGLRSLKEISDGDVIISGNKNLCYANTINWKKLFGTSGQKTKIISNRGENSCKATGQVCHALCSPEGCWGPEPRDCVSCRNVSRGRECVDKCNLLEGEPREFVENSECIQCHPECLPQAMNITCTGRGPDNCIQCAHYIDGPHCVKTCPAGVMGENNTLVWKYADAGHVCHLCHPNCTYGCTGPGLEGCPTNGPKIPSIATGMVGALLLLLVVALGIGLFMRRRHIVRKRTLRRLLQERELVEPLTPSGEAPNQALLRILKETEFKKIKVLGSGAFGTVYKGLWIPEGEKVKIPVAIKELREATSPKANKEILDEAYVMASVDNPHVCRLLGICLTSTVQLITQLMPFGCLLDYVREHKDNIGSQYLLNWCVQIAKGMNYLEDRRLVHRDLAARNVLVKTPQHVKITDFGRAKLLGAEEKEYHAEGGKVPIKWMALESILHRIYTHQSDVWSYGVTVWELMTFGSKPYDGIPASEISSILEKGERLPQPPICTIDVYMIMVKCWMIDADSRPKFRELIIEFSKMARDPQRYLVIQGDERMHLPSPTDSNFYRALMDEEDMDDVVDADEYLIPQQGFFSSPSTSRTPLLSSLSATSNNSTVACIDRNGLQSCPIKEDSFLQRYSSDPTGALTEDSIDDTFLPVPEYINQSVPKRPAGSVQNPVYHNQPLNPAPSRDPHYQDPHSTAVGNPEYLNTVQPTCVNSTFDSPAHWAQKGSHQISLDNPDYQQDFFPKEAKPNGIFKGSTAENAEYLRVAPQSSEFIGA
# Procedure: as §1, with “20 mins. Reactions were quenched with the addition of 10 μL of phospho-tyrosine antibody-Europium(III) cryptate (1-to-180 volume ratio) and Streptavidin-XL665 (46.7 nM) in EDTA-containing detection buffer, then incubated at room temperature for 1 hour, and read with a PHERAstar plate reader (excitation=337 nm, emission=620 nm and 665 nm).” for “20 mins.”
# [1] = target: EGFR L858R/T790M mutant Ba/F3 cells (Homo sapiens, UniProt P00533, T790M/L858R, cells depend on it); experiment: Ba/F3 cell proliferation (Cell Titer Glo); type: cell-based, murine; settings: 72 hours
# EGFR L858R/T790M mutant Ba/F3 cells, sequence (P00533 whole entry T790M/L858R): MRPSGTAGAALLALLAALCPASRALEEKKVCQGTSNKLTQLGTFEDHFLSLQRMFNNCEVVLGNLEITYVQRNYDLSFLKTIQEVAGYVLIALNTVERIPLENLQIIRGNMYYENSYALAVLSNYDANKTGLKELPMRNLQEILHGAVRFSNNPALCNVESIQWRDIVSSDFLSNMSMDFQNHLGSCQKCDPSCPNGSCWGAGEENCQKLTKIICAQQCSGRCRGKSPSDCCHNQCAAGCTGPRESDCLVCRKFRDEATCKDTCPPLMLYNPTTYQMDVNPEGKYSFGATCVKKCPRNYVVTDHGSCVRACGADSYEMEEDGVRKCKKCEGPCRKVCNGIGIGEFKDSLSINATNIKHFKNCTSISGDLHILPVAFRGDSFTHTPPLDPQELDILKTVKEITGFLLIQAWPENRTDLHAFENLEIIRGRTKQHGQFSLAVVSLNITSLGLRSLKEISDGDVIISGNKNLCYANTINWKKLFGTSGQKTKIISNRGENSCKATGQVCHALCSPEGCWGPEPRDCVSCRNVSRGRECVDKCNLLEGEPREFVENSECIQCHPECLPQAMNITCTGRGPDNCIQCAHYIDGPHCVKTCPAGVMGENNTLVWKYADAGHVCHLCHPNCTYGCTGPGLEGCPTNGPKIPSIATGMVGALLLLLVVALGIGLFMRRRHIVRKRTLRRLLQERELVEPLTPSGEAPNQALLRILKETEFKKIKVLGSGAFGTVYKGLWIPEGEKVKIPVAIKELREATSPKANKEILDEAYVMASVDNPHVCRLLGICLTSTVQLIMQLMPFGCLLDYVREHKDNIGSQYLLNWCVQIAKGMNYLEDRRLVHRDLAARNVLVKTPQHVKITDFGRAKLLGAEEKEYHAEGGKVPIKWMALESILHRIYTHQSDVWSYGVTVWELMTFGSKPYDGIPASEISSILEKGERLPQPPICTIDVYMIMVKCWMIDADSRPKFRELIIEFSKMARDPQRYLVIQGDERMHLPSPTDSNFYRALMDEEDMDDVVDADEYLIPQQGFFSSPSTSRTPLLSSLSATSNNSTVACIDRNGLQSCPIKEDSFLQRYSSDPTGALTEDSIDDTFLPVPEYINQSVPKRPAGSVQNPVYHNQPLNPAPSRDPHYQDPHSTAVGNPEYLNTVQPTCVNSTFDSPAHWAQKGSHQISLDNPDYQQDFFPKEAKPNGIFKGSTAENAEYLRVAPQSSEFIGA
# Description: All cell lines were maintained in RPMI 1640 (Cellgro; Mediatech Inc., Herndon, CA) supplemented with 10% FBS, 100 units/mL penicillin, 100 units/mL streptomycin. The EGFR I941R mutation was introduced via site directed mutagenesis using the Quick Change Site-Directed Mutagenesis kit (Stratagene; La Jolla, CA) according to the manufacturer's instructions. All constructs were confirmed by DNA sequencing. The constructs were shuttled into the retroviral vector JP1540 using the Cre-recombination system (Agilent Technologies, Santa Clara, CA). Ba/F3 cells were then infected with retrovirus per standard protocols, as described previously (Zhou, et al, Nature 2009). Stable clones were obtained by selection in puromycin (2 μg/ml).
# Growth and inhibition of growth was assessed by the Cell Titer Glo assay (Promega, Madison, WI) and was performed according to the manufacturer's instructions. The Cell Titer Glo assay is a luminescence-based method used to determine the number of viable cells based on quantitation of the ATP present, which is directly proportional to the amount of metabolically active cells present. […] All experimental points were set up in triplicates in 384-well plates and all experiments were repeated at least three times. […] The curves were fitted using a non-linear regression model with a sigmoidal dose response.
# [2] = in combination with 1 μg/ml cetuximab, read-out: Cell IC50 BaF3 L858R/T790M compound + cetuximab
# [3] = single agent, read-out: Cell IC50 EGFR BaF3 L858R/T790M
Structure (SMILES),IC50 (EGFR L858R/T790M) [nM],IC50 (EGFR L858R) [nM],"GI50 [1, 2] [nM]","GI50 [1, 3] [nM]"
"CN1CCN(c2ccc(-c3ccc4c(F)cn(C(C(=O)Nc5nccs5)c5ccccc5)c(=O)c4c3)cc2)CC1 (stereo not shown) [Compound 037, 2-(4-Fluoro-7-(4-(4-methylpiperazin-1-yl)phenyl)-1-oxoisoquinolin-2(1H)-yl)-2-phenyl-N-(thiazol-2-yl)-acetamide]",1,8,22,2650
"CN1CCC(c2ccc(-c3ccc4ncn(C(C(=O)Nc5nccs5)c5cccc(F)c5)c(=O)c4c3F)cc2)CC1 (stereo not shown) [Compound 070, 2-(5-Fluoro-6-(4-(1-methylpiperidin-4-yl)phenyl)-4-oxoquinazolin-3-(4H)-yl)-2-(3-fluorophenyl)-N-(thiazol-2-yl)acetamide]",0.2,1,5,550
"CN1CCC(c2ccc(-c3ccc4c(=O)n(C(C(=O)Nc5nccs5)c5ccccc5)cc(F)c4c3)cc2)CC1 (stereo not shown) [Compound 022, 2-(4-Fluoro-6-(4-(1-methylpiperidin-4-yl)phenyl)-1-oxoisoquinolin-2(1H)-yl)-2-phenyl-N-(thiazol-2-yl)acetamide]",0.6,2,20,1260
"O=C(Nc1nccs1)C(c1ccccc1)n1cnc2cc(Br)c(F)cc2c1=O (stereo not shown) [Compound 005, 2-(7-Bromo-6-fluoro-4-oxoquinazolin-3(4H)-yl)-2-phenyl-N-(thiazol-2-yl)acetamide]",91,> 1000,4800,> 10000
"CN1CCC(c2ccc(-c3ccc4ncn(C(C(=O)Nc5ccccn5)c5cc(F)ccc5O)c(=O)c4c3)cc2)CC1 (stereo not shown) [Compound 082, 2-(5-Fluoro-2-hydroxyphenyl)-2-(6-(4-(1-methylpiperidin-4-yl)phenyl)-4-oxoquinazolin-3(4H)-yl)-N-(pyridin-2-yl)acetamide; hydrochloride]",0.2,1,2,230
"CN1CCN(c2ccc(-c3ccc4ncn(C(C(=O)Nc5nccs5)c5ccccc5)c(=O)c4c3F)cc2)CC1 (stereo not shown) [Compound 071, 2-(5-Fluoro-6-(4-(4-methyl-piperazin-1-yl)phenyl)-4-oxo-quinazolin-3(4H)-yl)-2-phenyl-N-(thiazol-2-yl)acetamide]",0.7,5,20,2370
"O=C(Nc1nccs1)C(c1cccc(F)c1)n1cnc2cc(Br)ccc2c1=O (stereo not shown) [Compound 010, 2-(7-Bromo-4-oxoquinazolin-3(4H)-yl)-2-(3-fluorophenyl)-N-(thiazol-2-yl)acetamide]",54,1840,> 10000,> 10000
"CN1CCC(c2ccc(-c3ccc4ncn(C(C(=O)Nc5nccs5)c5ccccc5)c(=O)c4c3)cc2)CC1 (stereo not shown) [Compound 014, 2-(6-(4-(1-Methylpiperidin-4-yl)-phenyl)-4-oxoquinazolin-3(4H)-yl)-2-phenyl-N-(thiazol-2-yl)acetamide]",0.2,3,5,510
"CN1CCN(c2ccc(-c3ccc4c(=O)n(C(C(=O)Nc5nccs5)c5cccc(F)c5)cnc4c3)cc2)CC1 (stereo not shown) [Compound 029, 2-(3-Fluorophenyl)-2-(7-(4-(4-methyl-piperazin-1-yl)phenyl)-4-oxo-quinazolin-3(4H)-yl)-N-(thiazol-2-yl)-acetamide]",18,91,560,3450
"CN1CCN(c2ccc(-c3ccc4c(=O)n(C(C(=O)Nc5nccs5)c5ccccc5)cc(F)c4c3)cc2)CC1 (stereo not shown) [Compound 023, 2-(4-Fluoro-6-(4-(4-methylpiperazin-1-yl)phenyl)-1-oxoisoquinolin-2(1H)-yl)-2-phenyl-N-(thiazol-2-yl)-acetamide]",3,7,110,2410
"O=C(Nc1ccccn1)C(c1cccc(F)c1)n1cnc2ccc(Br)cc2c1=O (stereo not shown) [Compound 034, 2-(6-Bromo-4-oxoquinazolin-3(4H)-yl)-2-(3-fluorophenyl)-N-(pyridin-2-yl)acetamide]",18,> 1000,1800,> 10000
"CN1CCN(c2ccc(-c3ccc4c(=O)n(C(C(=O)Nc5nccs5)c5ccccc5)ncc4c3)cc2)CC1 (stereo not shown) [Compound 027, 2-(6-(4-(4-Methylpiperazin-1-yl)-phenyl)-1-oxophthalazin-2(1H)-yl)-2-phenyl-N-(thiazol-2-yl)acetamide]",18,209,1700,3460
"CN1CCC(c2ccc(-c3ccc4ncn(C(C(=O)Nc5nccs5)c5cc(F)ccc5O)c(=O)c4c3F)cc2)CC1 (stereo not shown) [Compound 083, 2-(5-Fluoro-2-hydroxyphenyl)-2-(5-fluoro-6-(4-(1-methylpiperidin-4-yl)phenyl)-4-oxoquinazolin-3(4H)-yl)-N-(thiazol-2-yl)acetamide]",0.1,0.2,9,40
"CN1CCN(c2ccc(-c3ccc4ncn(C(C(=O)Nc5ccccn5)c5ccccc5)c(=O)c4c3)cc2)CC1 (stereo not shown) [Compound 039, 2-(6-(4-(4-Methylpiperazin-1-yl)-phenyl)-4-oxoquinazolin-3(4H)-yl)-2-phenyl-N-(pyridin-2-yl)acetamide]",9,191,76,1780
"CN1CCN(c2ccc(-c3ccc4ccn(C(C(=O)Nc5nccs5)c5ccccc5)c(=O)c4c3)cc2)CC1 (stereo not shown) [Compound 019, 2-(7-(4-(4-Methylpiperazin-1-yl)-phenyl)-1-oxoisoquinolin-2(1H)-yl)-2-phenyl-N-(thiazol-2-yl)acetamide]",5,35,44,1850
"CN1CCN(c2ccc(-c3ccc4cnn(C(C(=O)Nc5nccs5)c5ccccc5)c(=O)c4c3)cc2)CC1 (stereo not shown) [Compound 043, 2-(7-(4-(4-Methylpiperazin-1-yl)-phenyl)-1-oxophthalazin-2(1H)-yl)-2-phenyl-N-(thiazol-2-yl)acetamide]",10,90,380,2160
"Cc1nc2cc(-c3ccc(N4CCN(C)CC4)cc3)ccc2c(=O)n1C(C(=O)Nc1nccs1)c1ccccc1 (stereo not shown) [Compound 055, 2-(2-Methyl-7-(4-(4-methylpiperazin-1-yl)phenyl)-4-oxoquinazolin-3(4H)-yl)-2-phenyl-N-(thiazol-2-yl)-acetamide]",79,264,1500,3940
"O=C(Nc1nccs1)C(c1ccccc1)n1cnc2ccc(Br)cc2c1=O (stereo not shown) [Compound 002, 2-(6-Bromo-4-oxoquinazolin-3(4H)-yl)-2-phenyl-N-(thiazol-2-yl)-acetamide]",35,275,980,> 10000
"CN1CCC(c2ccc(-c3ccc4c(=O)n(C(C(=O)Nc5nccs5)c5ccccc5)cnc4c3)cc2)CC1 (stereo not shown) [Compound 012, 2-(7-(4-(1-Methylpiperidin-4-yl)phenyl)-4-oxoquinazolin-3(4H)-yl)-2-phenyl-N-(thiazol-2-yl)acetamide]",6,11,200,2150
